Experimental data published in the NIST ThermoML archive (doi:10.1016/j.fluid.2013.07.015).
Numbers after ± are expanded uncertainties.

Tests used:
[1] = Liquid; for mass density: 293.15 K, 101.33 kPa, Vibrating tube method; for Normal boiling temperature: Closed cell (Static) method
[2] = refractive index (Na D-line) (dimensionless); settings: 298.15 K; 101.33 kPa; Liquid; Standard Abbe refractometry

In the case of `O=CO` [formic acid], the mass density [1] is reported as 1218.5 ± 1.4 kg/m3, the Normal boiling temperature [1] is reported as 101.1 ± 1.1 °C and the refractive index [2] is reported as 1.3721 ± 0.00052.
In the case of `O` [water], the mass density [1] is reported as 999.9 ± 0.24 kg/m3, the Normal boiling temperature [1] is reported as 100.1 ± 1 °C and the refractive index [2] is reported as 1.33244 ± 0.00033.
In the case of `CCCCCCC(=O)OCC` [ethyl heptanoate], the mass density [1] is reported as 881.3 ± 0.74 kg/m3, the Normal boiling temperature [1] is reported as 187.2 ± 1.1 °C and the refractive index [2] is reported as 1.41123 ± 0.00052.
In the case of `CC(=O)O` [acetic acid], the mass density [1] is reported as 1044.3 ± 0.96 kg/m3, the Normal boiling temperature [1] is reported as 117.1 ± 1.1 °C and the refractive index [2] is reported as 1.37104 ± 0.00052.
